Measured values published in the METLIN SMRT retention time set (Domingo-Almenara et al. 2019).

Experiment: gradient 5% acetonitrile 3 min, to 50% in 2 min, to 85% in 15 min, held 3 min, 100 µL/min
Conditions: column: Zorbax Extend-C18 2.1 x 50 mm; eluents: water / acetonitrile, 0.1% formic acid
In short: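 The mobile phases were water and acetonitrile, each with 0.1% formic acid, pumped at 100 μL/min through a Zorbax Extend-C18 column (2.1 × 50 mm, 1.8 μm). Pure standards were injected as mixtures of ~100 molecules and detected by a quadrupole time-of-flight mass spectrometer in positive and negative ionization mode. Retention time came from computationally picked adduct peaks, each inspected by hand.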

Structure (SMILES) | RP-LC retention time
CCC1CCCCN1C(=O)c1cnc2nc(C)ccc2c1Nc1cccc(C)c1C (centres undefined) | 720 s
CC(=O)Nc1onc(C)c1-c1ccc(C)c(S(=O)(=O)N2CCN(c3ccccn3)CC2)c1 | 628 s
CSc1ccc(CNC(=O)C2CCCN(c3cnc4nc(C)c(C)nc4c3)C2)cc1 (centres undefined) | 755 s
CCc1ccc(OCC(=O)Nc2cnn(CC)c(=O)c2N2CCOCC2)cc1 | 981 s
Cc1ccc2nc(NC(=O)C3CCN(S(=O)(=O)c4ccc5[nH]c(=O)ccc5c4)CC3)sc2c1 | 814 s
Cn1c(=O)c2c(ncn2CC(=O)N2CCC(c3nc(C4CCOCC4)no3)CC2)n(C)c1=O | 611 s
O=C(Nc1ccc(OCC(F)(F)C(F)F)cc1)c1ccncc1 | 683 s
CC(C)(C)CC(=O)NCCn1c(=O)n(Cc2ccccc2)c2cccnc21 | 786 s
O=C(C1CCN(c2nc3ccc(-c4ccsc4)nc3s2)CC1)N1CCCC1 | 893 s
CCCN1C(=O)C(CC(=O)N2CCOCC2)Sc2ncccc21 (centres undefined) | 641 s
O=C(c1ccsc1)N1CCC(N(C(=O)C2CC2)C2CCOCC2)CC1 | 662 s
COc1ccc(OC)c(S(=O)(=O)N2[C@H]3CC[C@@H]2c2cnc(-c4ccccc4)nc2C3)c1 | 1020 s
CCOc1ccc2c(n1)CCN(C(=O)Nc1cc(C)cc(C)c1)C2 | 912 s
CCC1CCCCN1CCNC(=O)c1sc2cccc(F)c2c1OC (centres undefined) | 700 s
O=C(CN1CCC2(CC1)N=C(c1ccc(F)cc1)C(=O)N2)Nc1ccc(F)cc1F | 666 s
COc1ccccc1-c1nnc(-c2cc(S(=O)(=O)N3CCOCC3)ccc2F)o1 | 828 s
Cc1nn(C)c(C)c1CNC(=O)C1CCN(c2nnc3ccccn23)CC1 | 515 s
COCCN1C(=O)[C@H]2CN(Cc3ccc(F)cc3Cl)C[C@H]2C1=O | 693 s
O=C(NCc1ccccc1F)C1CCN(c2cncnc2N2CCOCC2)CC1 | 611 s
O=C1[C@H]2CN(Cc3cccc(OC(F)(F)F)c3)C[C@H]2C(=O)N1CCc1ccccc1 | 1000 s
O=C(NCCc1noc(C2CC2)n1)C1CCCC1 | 699 s
CSc1ccccc1NC(=O)C(=O)NCC1CCN(C(=O)COc2ccccc2)CC1 | 754 s
Cc1cc(OCC(=O)NCc2ccc(Cl)cc2)nc(N2CCCC2)n1 | 645 s

Structure (SMILES) | RP-LC retention time
Cc1ccc(C)c(OCC(O)Cn2c(C3CC3)nc3ccccc32)c1 (centres undefined) | 731 s
O=S(=O)(NC1CCCC1)c1cccc(-c2nc(-c3ccccc3)no2)c1 | 1170 s
CCOC(=O)C1CCN(c2cc3c(cc2NC(=O)C2CC2)n(C)c(=O)c(=O)n3C)CC1 | 758 s
Cc1ccc2c(c1)C1CC(C)(O2)N(c2cccc(C(=O)N3CCCC3)c2)C(=O)N1 (centres undefined) | 754 s
CC(C)COC(=O)NCCc1nc2ccccc2[nH]1 | 556 s
O=S(=O)(c1ccccc1Cl)N1CCc2nc(-c3ccc(Cl)cc3)ncc2C1 | 1180 s
CCc1ccc(N2CCC(C(=O)NCCc3c[nH]c4ccc(Cl)cc34)C2=O)cc1 (centres undefined) | 1020 s
c1ccc(-c2nc3nccc(-c4cccc5ccccc45)n3n2)cc1 | 995 s
COCC(=O)N(CC(=O)N1CCc2sccc2C1COc1ccccc1F)CC(C)C (centres undefined) | 900 s
COc1ccc2[nH]c(C(=O)N3CC(n4cc(COCC5CC5)nn4)C3)cc2c1 | 742 s
O=C(CSc1ncnc2c1nnn2-c1cccc(Cl)c1)NCC1CCCO1 (centres undefined) | 820 s
COCC(C)(O)CNC(=O)Nc1c(F)cccc1F (centres undefined) | 595 s
Cc1ccc2c(c1)N(S(C)(=O)=O)CCC(C(=O)NCc1ccccc1C)O2 (centres undefined) | 900 s
CNC(=O)c1cccc(-c2noc(C)n2)c1 | 644 s
O=C(NCCC1=CCCCC1)c1nnc(-c2ccc(S(=O)(=O)N3CCCCC3)cc2)o1 | 1160 s
O=C(O)Cc1sc(NCc2ccccc2)nc1-c1ccccc1 | 681 s
COc1cc(-c2nnc(-c3ccc(C)c(S(=O)(=O)N(C)C)c3)o2)cc(OC)c1OC | 936 s
c1ccc(Cn2cc(-c3noc(-c4ccccc4)n3)nn2)cc1 | 814 s
CCC(C(=O)NCCc1c[nH]c2ccc(OC)cc12)n1nc(C)c2nn(-c3ccccc3)c(C)c2c1=O (centres undefined) | 895 s
CCc1ccc2c(c1)cc(S(=O)(=O)c1ccccc1)c(=O)n2CC(=O)NC(C)C | 882 s
CCC(C)C(=O)N1CCN(c2ncccc2-c2nnc(C3CC3)o2)CC1 (centres undefined) | 733 s
CCOc1ccc(Cc2nc(-c3cccc(-c4ccnn4C)c3)no2)cc1OCC | 1090 s
O=C(NCCOc1ccc(F)cc1)c1ccc2nsnc2c1 | 786 s

Structure (SMILES) | RP-LC retention time
O=C(NCC#CCN1CCc2ccccc2C1)c1cc(C2CC2)on1 | 579 s
O=C(Nc1ccccc1)C1CC(=O)N(CCc2c[nH]c3ccc(F)cc23)C1 (centres undefined) | 796 s
CCN1CCCn2cc(S(=O)(=O)N3CCN(c4ccccc4OC)CC3)cc2C1=O | 784 s
CCc1ccc(-c2cc(C(=O)N3CCN(Cc4noc5ccccc45)CC3)[nH]n2)cc1 | 772 s
Cc1sc(-c2cc(C(F)(F)F)on2)cc1S(=O)(=O)NCCc1ccc(Cl)cc1 | 1220 s
Cc1nn(C(C)C(=O)NCCN2CCCCC2C)c(=O)c2c1sc1ccccc12 (centres undefined) | 680 s
Cc1cc(=O)n(Cc2cccc(F)c2)c(N2CCSCC2)n1 | 946 s
COc1ccc(NC(=O)Cn2c(C)cc(-c3nnc(C4CC4)o3)c2C)cc1 | 779 s
Cc1ccc(Nc2c(-c3ccc(Cl)cc3)nc3cnccn23)cc1Cl | 1150 s
O=C(NCc1ccco1)c1ccc2c(c1)CCCN2S(=O)(=O)c1ccc(Cl)cc1 | 999 s
COc1ccc(N2CC(NC(=O)c3ccc(S(=O)(=O)N(C)C)cc3)CC2=O)cc1OC (centres undefined) | 634 s
COc1ccccc1CNC(=O)c1ccc2c(c1)N(C)C(=O)C1CCCCN21 (centres undefined) | 880 s
COc1ccccc1N1CCN(c2cc(SCC(=O)NCCCc3ccccc3)ncn2)CC1 | 959 s
O=C(Cc1nnc(-c2ccc3ncccc3c2)o1)NCc1cccc(Cl)c1 | 722 s
Cc1nn(-c2ccc(C(=O)N3CCN(C(=O)c4ccco4)CC3)cc2)c2c1C(=O)CCC2 | 664 s
O=C(NCCc1c[nH]c2ccccc12)c1nn(-c2ccc(Cl)cc2)nc1CO | 1020 s
O=C(CC1CSc2ccccc2NC1=O)NC1CCCCCC1 (centres undefined) | 822 s
Cc1noc(C)c1CC(=O)N1CCCC(c2nnc3n2CCN(C(=O)C2CC2)C3)C1 (centres undefined) | 596 s
COc1ccc(OC)c(NC(=O)N2CCC3(CC2)N=C(c2ccc(F)cc2)C(=O)N3)c1 | 838 s
CCc1ccc(NC(=O)Cc2c(C)n(C)c3nc(-c4ccccc4)nn3c2=O)cc1 | 887 s
O=C(NCCN1CCCCC1)c1cn2cc(Cl)ccc2n1 | 579 s
Clc1ccc(Cl)c(-c2ccc(CNCc3cccs3)o2)c1 | 772 s
Cc1noc(C)c1-c1ccc(S(=O)(=O)Nc2ccc(C(C)C)cc2)cc1 | 1060 s

Structure (SMILES) | RP-LC retention time
COc1cccc(-c2noc(-c3nc(-c4ccc5c(c4)OCO5)no3)n2)c1OC | 1150 s
COc1cccc(-c2noc(Cn3nc4ccc(-c5ccc(C)c(C)c5)nn4c3=O)n2)c1OC | 969 s
CCNc1cc(N2CCC(CCC(=O)NCc3ccccc3)CC2)ncn1 | 647 s
O=C(C1CC1)N1CCCC(OCc2nc(-c3ccncc3)no2)C1 (centres undefined) | 619 s
CCn1ccc2c(cc(C(=O)Nc3cccc(C)c3C)n2C)c1=O | 736 s
CCS(=O)(=O)N1C[C@@H](COC)[C@H](c2ccccn2)C1 | 585 s
COc1cccc(C(=O)CSc2ccc(NC(=O)c3cccs3)nn2)c1 | 846 s
COc1ccc2[nH]cc(CCNC(=O)c3c(-c4cccnc4)noc3C)c2c1 | 667 s
CC(C)c1cccc(NC(=O)Cn2c(=O)cc(-c3nc(C4CC4)no3)c3ccccc32)c1 | 1080 s
Cc1nc(-c2ccc(F)cc2)sc1C(=O)N1CCC(C(C)C(=O)NC2CC2)CC1 (centres undefined) | 747 s
Fc1ccccc1N1CCN(c2ncc3c(n2)CCN(Cc2ccc4c(c2)OCCO4)C3)CC1 | 779 s
COc1cccc(Cc2nc(-c3ccc4c(c3)nc(C)c(=O)n4C)no2)c1 | 899 s
O=C(NCCC1=CCCCC1)C1CCCN(c2ncnc3c2oc2ccccc23)C1 (centres undefined) | 872 s
Cc1ccc(C)c(NC(=O)N2CCC(n3cnnc3C3CC3)C2)c1 (centres undefined) | 634 s
Cc1cc(C2CCCN2C(=O)Cc2ccccc2Cl)no1 (centres undefined) | 804 s
CC(C)c1cc(C(=O)Nc2ccccc2)no1 | 969 s
Cc1ccc(C(=O)NCc2nc(-c3ccc(-c4csc(C)n4)cc3)no2)cc1 | 964 s
Cc1ccc(NC(=O)c2sc(-n3cccc3)nc2C(C)C)cc1F | 1320 s
CS(=O)(=O)N1CCC(C(=O)NCC2CCN(C(=O)Oc3ccccc3)CC2)CC1 | 663 s
CCNc1cc(N2CCC(CCC(=O)NCc3ccc(OC)cc3)CC2)ncn1 | 568 s
